Source: patent US20220152015A1, “NEDOCROMIL SODIUM TO PREVENT, LIMIT ONSET, AND /OR TREAT PANCREATIC CANCER” (priority 2020, published 2022)

Key:
[1] = biological target: T1, human GPR35 (Homo sapiens, UniProt Q9HC97); assay: PathHunter human GPR35a-β-arrestin-2 interaction assay in CHO-K1 cells; format: cell-based
T1 construct: expressed in transfected cells; host or cells: CHO-K1

[2] = tested on: ion channels present in the intestinal cell line HT29; assay: Whole-cell patch-clamp recordings of ion channels; format: cell-based; details: HT29 cells
Excerpt: Summary—Whole-cell patch-clamp recordings were used to test the effects of The Compound on ion channels.

[3] = tested on: K-ras^G12Dp53^−/− tumors; assay: Surgically implanted PDAC tumors in tumor-bearing C57BL/6 mice; format: in vivo
Procedure: (§1) To determine whether targeting mast cell function has a therapeutic effect in PDAC, we injected tumor-bearing C57BL/6 mice Nedocromil sodium, a mast cell stabilizer. […] Tumor measurement was performed at the end time point (day 50) after treatment. […] Similarly, mast cell degranulation in the tumor microenvironment was inhibited in the nedocromil sodium-treated group compared with in the saline-treated control group.

[4] = tested on: Panc-02 tumor cells; assay: Panc-02 tumor growth in mice; format: in vivo; details: treated mice vs. saline control at day 21 after treatment, P<0.001
Excerpt: as §1, with “Tumor measurement was performed at the end time point (day 50) after treatment.” left out

[5] = tested on: cancerous tumor; assay: Dog tumor case, topical application; format: in vivo
Procedure: Summary—A female dog was given the diagnosis of a cancerous tumor (without confirmatory histology due to lack of ability to aspirate the tumor due to the hardness of the mass) in June of 2020. At the time of diagnosis the tumor located on […] right shoulder was measured at 2 inches by 2 inches with a depth of 0.5 inches. Other than supportive care (ketogenic diet to delay tumor progression, and gabapentin for neuropathic pain) no treatment was provided by the owners, as the cost and lack of clear benefit to conventional therapy (biopsy, chemotherapy, and eventual resection) was not deemed to be appropriate for this dog. […] On December 23rd, 2020 the first application of Nedocromil sodium compound was administered to the dog via the topical route. The dog's tumor area was shaved to improve the absorption of the compound into the skin. On Jul. 16, 2021 (tumor size of 1.5×1×0.5 inches), a second application of Nedocromil Sodium was applied using the same dosing strategy in attempt to eradicate the tumor entirely.

[6] = tested on: stage 4 transit metastatic melanoma; assay: Transit metastasis melanoma case study, topical application
Procedure: Person with stage 4 transit metastatic melanoma with 30 melanomas on the body. Using chemotherapy infusions every 3 weeks since 2019. For 2 weeks used topical Nedocromil sodium with one dose per tumor (30) per week. […] In modern medicine the goal is to shrink a tumor, but the tumor never resolves. […] The patient was treated with Nedocromil Sodium on all 30 tumors in one sitting.

T1 sequence (Q9HC97 whole entry): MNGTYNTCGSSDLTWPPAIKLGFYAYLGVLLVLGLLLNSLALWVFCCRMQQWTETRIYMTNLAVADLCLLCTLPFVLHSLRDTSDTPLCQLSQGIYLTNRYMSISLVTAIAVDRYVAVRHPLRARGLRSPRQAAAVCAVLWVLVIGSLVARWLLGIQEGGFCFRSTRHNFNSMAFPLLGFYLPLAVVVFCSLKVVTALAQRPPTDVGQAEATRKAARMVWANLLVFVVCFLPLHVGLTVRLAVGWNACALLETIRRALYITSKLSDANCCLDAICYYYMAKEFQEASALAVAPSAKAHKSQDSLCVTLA

CCCc1c2oc(C(=O)[O-])cc(=O)c2cc2c(=O)cc(C(=O)[O-])n(CC)c12.[Na+].[Na+] [Nedocromil Sodium, 4H-Pyrano[3,2-g]quinoline-2,8-dicarboxylic acid, 9-ethyl-6,9-dihydro-4,6-dioxo-10-propyl-, disodium salt]
EC50 ([1]; CHO-K1 cell line stably expressing human GPR35 and β-arrestin): 2980 ± 1270 nM | agonism of GPR 35 ([1]; PathHunter β-arrestin-2 interaction assay): potent full agonist | dose dependence of ion channel block [2]: dose-dependent manner | mast cell degranulation in the tumor microenvironment ([3]; compared with saline-treated control group): inhibited | mean tumor size ([3]; end time point (day 50) after treatment, saline group 31.3): 5.2 mm^3 | tumor growth ([3]; treated mice vs. saline control at day 42 after treatment, P<0.001): significantly suppressed | tumor growth [4]: significantly suppressed | tumor change ([5]; 8 week mark after second topical application): no tumor was able to be felt | tumor change ([5]; roughly 6 weeks after second topical application): noticeably smaller | number of tumors dissolved ([6]; after 2nd topical treatment): 17 OF THE 30 TUMORS | tumor change ([6]; after one topical treatment, 30 tumors): the tumors have flattened | side effects ([6]; all 30 tumors treated in one sitting): no side effects
